Test results taken from ChEMBL document CHEMBL3885881, “DrugMatrix”.

Organism: Rattus norvegicus
Test: DrugMatrix - Regimen: Daily Repeat
Type: toxicity, organism-based, Sprague-Dawley
Design: regimen Daily Repeat, gender Male, age 6-8 weeks
Conditions: in vivo, po, route oral GAVAGE, vehicle .5 % CMC; for ABSOLUTE BASOPHIL / ABSOLUTE EOSINOPHIL / ABSOLUTE LYMPHOCYTE / ABSOLUTE MONOCYTE / ABSOLUTE SEGMENTED NEUTROPHIL / BASOPHIL / EOSINOPHIL / ERYTHROCYTE COUNT / HEMATOCRIT / HEMOGLOBIN / LEUKOCYTE COUNT / LYMPHOCYTE / MEAN CORPUSCULAR HEMOGLOBIN / MEAN CORPUSCULAR HEMOGLOBIN CONCENTRATION / MEAN CORPUSCULAR VOLUME / MONOCYTE / NEUTROPHIL / NUCLEATED RED BLOOD CELLS / PLATELET COUNT: tissue Blood; for ALANINE AMINOTRANSFERASE / ALBUMIN / ALKALINE PHOSPHATASE / ASPARTATE AMINOTRANSFERASE / BLOOD UREA NITROGEN / CARBON DIOXIDE / CHLORIDE / CHOLESTEROL / CREATINE PHOSPHOKINASE / CREATININE / GLUCOSE / LACTATE DEHYDROGENASE / LIPASE / PHOSPHORUS / POTASSIUM / SODIUM / TOTAL BILIRUBIN / TOTAL PROTEIN / URIC ACID: tissue Plasma
[1] = 150 mg/kg, 120 h, dose level Low, time 5 day
[2] = 1500 mg/kg, 72 h, dose level High, time 3 day
[3] = 1500 mg/kg, 120 h, dose level High, time 5 day

## C[C@]1(Cn2ccnn2)[C@H](C(=O)O)N2C(=O)C[C@H]2S1(=O)=O [TAZOBACTAM]
[1]
  ABSOLUTE BASOPHIL: 0 CELLS/uL
  ABSOLUTE EOSINOPHIL: 96 CELLS/uL
  ABSOLUTE LYMPHOCYTE: 12730.67 CELLS/uL
  ABSOLUTE MONOCYTE: 0 CELLS/uL
  ABSOLUTE SEGMENTED NEUTROPHIL: 1940 CELLS/uL
  BASOPHIL: 0%
  EOSINOPHIL: 0.67%
  ERYTHROCYTE COUNT: 5.47 x10E6/uL
  HEMATOCRIT: 33.33%
  HEMOGLOBIN: 12.73 G/DL
  LEUKOCYTE COUNT: 14.77 x10E3/uL
  LYMPHOCYTE: 86%
  MEAN CORPUSCULAR HEMOGLOBIN: 23.3 pg
  MEAN CORPUSCULAR HEMOGLOBIN CONCENTRATION: 38.2 G/DL
  MEAN CORPUSCULAR VOLUME: 60.97 fL
  MONOCYTE: 0%
  NEUTROPHIL: 13.33%
  NUCLEATED RED BLOOD CELLS: 0 /100WBC
  PLATELET COUNT: 1082 x10E3/uL
  ALANINE AMINOTRANSFERASE: 60.67 u/L
  ALBUMIN: 4.2 G/DL
  ALKALINE PHOSPHATASE: 333 u/L
  ASPARTATE AMINOTRANSFERASE: 84 u/L
  BLOOD UREA NITROGEN: 17.33 mg/dL
  CARBON DIOXIDE: 23.33 mmol/L
  CHLORIDE: 104.33 MEQ/L
  CHOLESTEROL: 76.67 mg/dL
  CREATINE PHOSPHOKINASE: 277 u/L
  CREATININE: 0.21 mg/dL
  GLUCOSE: 141.33 mg/dL
  LACTATE DEHYDROGENASE: 295.67 u/L
  LIPASE: 9 u/L
  PHOSPHORUS: 13.07 mg/dL
  POTASSIUM: 6.29 MEQ/L
  SODIUM: 144.97 MEQ/L
  TOTAL BILIRUBIN: 0.17 mg/dL
  TOTAL PROTEIN: 5.8 G/DL
  URIC ACID: 1.83 mg/dL
[2]
  ABSOLUTE BASOPHIL: 0 CELLS/uL
  ABSOLUTE EOSINOPHIL: 240.33 CELLS/uL
  ABSOLUTE LYMPHOCYTE: 12544 CELLS/uL
  ABSOLUTE MONOCYTE: 44.33 CELLS/uL
  ABSOLUTE SEGMENTED NEUTROPHIL: 838 CELLS/uL
  BASOPHIL: 0%
  EOSINOPHIL: 1.67%
  ERYTHROCYTE COUNT: 5.29 x10E6/uL
  HEMATOCRIT: 33.47%
  HEMOGLOBIN: 12.83 G/DL
  LEUKOCYTE COUNT: 13.67 x10E3/uL
  LYMPHOCYTE: 91.67%
  MEAN CORPUSCULAR HEMOGLOBIN: 24.23 pg
  MEAN CORPUSCULAR HEMOGLOBIN CONCENTRATION: 38.33 G/DL
  MEAN CORPUSCULAR VOLUME: 63.23 fL
  MONOCYTE: 0.33%
  NEUTROPHIL: 6.33%
  NUCLEATED RED BLOOD CELLS: 0 /100WBC
  PLATELET COUNT: 1291.33 x10E3/uL
  ALANINE AMINOTRANSFERASE: 65.33 u/L
  ALBUMIN: 4.1 G/DL
  ALKALINE PHOSPHATASE: 447.33 u/L
  ASPARTATE AMINOTRANSFERASE: 89 u/L
  BLOOD UREA NITROGEN: 15.67 mg/dL
  CARBON DIOXIDE: 27.33 mmol/L
  CHLORIDE: 102.67 MEQ/L
  CHOLESTEROL: 73.33 mg/dL
  CREATINE PHOSPHOKINASE: 209.33 u/L
  CREATININE: 0.18 mg/dL
  GLUCOSE: 161.67 mg/dL
  LACTATE DEHYDROGENASE: 102 u/L
  LIPASE: 9 u/L
  PHOSPHORUS: 13.27 mg/dL
  POTASSIUM: 6.83 MEQ/L
  SODIUM: 146.53 MEQ/L
  TOTAL BILIRUBIN: 0.17 mg/dL
  TOTAL PROTEIN: 5.63 G/DL
  URIC ACID: 1.73 mg/dL
[3]
  ABSOLUTE BASOPHIL: 0 CELLS/uL
  ABSOLUTE EOSINOPHIL: 130.33 CELLS/uL
  ABSOLUTE LYMPHOCYTE: 11683.33 CELLS/uL
  ABSOLUTE MONOCYTE: 0 CELLS/uL
  ABSOLUTE SEGMENTED NEUTROPHIL: 1019.67 CELLS/uL
  BASOPHIL: 0%
  EOSINOPHIL: 1%
  ERYTHROCYTE COUNT: 5.74 x10E6/uL
  HEMATOCRIT: 36.23%
  HEMOGLOBIN: 13.93 G/DL
  LEUKOCYTE COUNT: 12.83 x10E3/uL
  LYMPHOCYTE: 91%
  MEAN CORPUSCULAR HEMOGLOBIN: 24.47 pg
  MEAN CORPUSCULAR HEMOGLOBIN CONCENTRATION: 38.5 G/DL
  MEAN CORPUSCULAR VOLUME: 63.5 fL
  MONOCYTE: 0%
  NEUTROPHIL: 8%
  NUCLEATED RED BLOOD CELLS: 0 /100WBC
  PLATELET COUNT: 1185.67 x10E3/uL
  ALANINE AMINOTRANSFERASE: 58.67 u/L
  ALBUMIN: 4.4 G/DL
  ALKALINE PHOSPHATASE: 302 u/L
  ASPARTATE AMINOTRANSFERASE: 76 u/L
  BLOOD UREA NITROGEN: 18.33 mg/dL
  CARBON DIOXIDE: 27 mmol/L
  CHLORIDE: 104 MEQ/L
  CHOLESTEROL: 62.67 mg/dL
  CREATINE PHOSPHOKINASE: 174 u/L
  CREATININE: 0.22 mg/dL
  GLUCOSE: 170 mg/dL
  LACTATE DEHYDROGENASE: 115.67 u/L
  LIPASE: 9 u/L
  PHOSPHORUS: 12.83 mg/dL
  POTASSIUM: 6.45 MEQ/L
  SODIUM: 148.17 MEQ/L
  TOTAL BILIRUBIN: 0.2 mg/dL
  TOTAL PROTEIN: 6.2 G/DL
  URIC ACID: 1.8 mg/dL
